# Measurements as given in article PMC5460445, “Pharmacokinetic Comparison of 20(R)- and 20(S)-Ginsenoside Rh1 and 20(R)- and 20(S)-Ginsenoside Rg3 in Rat Plasma following Oral Administration of Radix Ginseng Rubra and Sheng-Mai-San Extracts” (Evidence-based Complementary and Alternative Medicine : eCAM, 2017).
# Test: Pharmacokinetic study in rats after oral administration of Radix Ginseng Rubra or SMS extracts (LC-MS of plasma)
# Type: in vivo, Male Sprague-Dawley rats
# Parameters: AUC(0–t) / AUC(0–∞): unit not given here
# Settings: for T max / AUC(0–t) / AUC(0–∞) / C max / t 1/2: rat plasma; for AUC(0–t) / AUC(0–∞) / C max / t 1/2: mean ± SD
# Description: A Shimadzu 2020 LC-MS system, with an electrospray ionization interface (ESI) source and Shimadzu LCMS LabSolution Workstation software for data processing, was utilized to perform the analytical procedures. The system includes two Shimadzu LC-20AD pumps, a Shimadzu SIL-20A autosampler, a Shimadzu CTO-20A column oven, a CBM-20A system controller, and a Shimadzu DGU-20A3 online degasser. A Q-array-octapole-quadrupole mass analyzer was used as the detector.
# The chromatographic separation was carried on a Diamonsil C18 column (150 mm × 4.6 mm id, 5 μm; Dikma, China) with the mobile phase containing 0.5 mmol/L ammonium chloride in double-distilled water (A) and acetonitrile (B) at a flow rate of 1.0 mL/min. A diverter valve was used to direct 0.3 mL/min HPLC elute to MS detector and 0.7 mL/min elute to a waste container. A gradient elution program was used as follows: 0.01→6.0 min, 38% B; 6.0→6.5 min, 38→50% B; 6.5→15.0 min, 50% B; 15.0→15.5 min, 50→38% B. The column temperature was kept constant at 40°C.
# The negative-ion electrospray ionization mode was utilized under the following source conditions: curved desolvation line (CDL) temperature, 250°C; block temperature, 400°C; interface temperature, 350°C; nebulizing gas flow rate, 1.5 L/min; drying gas flow rate, 10 L/min. CDL voltage, 0 V; Q-array DC (direct current) voltage, 0 V; interface voltage and RF ([…] frequency) voltage were fixed as those in tuning. The chlorinated adducts of molecular ions [M + Cl]^− of 20(R)-ginsenoside Rh1 and 20(S)-ginsenoside Rh1 at m/z 673.45, 20(R)-ginsenoside Rg3 and 20(S)-ginsenoside Rg3 at m/z 819.60, and digoxin (IS) at m/z 815.60 were monitored in selected ion monitoring (SIM) mode.
# Radix Ginseng Rubra and Radix Ophiopogonis were cut into slices and Fructus Schisandrae was scrunched into powder before use. Three drugs were mixed in the ratio of 1 : 3 : 1.5 and the total weight was 110 g. The mixture was extracted with water for three times (1 : 10, 1 : 8, and 1 : 6, w/v) at 100°C, 1 h for each time. The SMS extract was obtained and condensed to 0.55 g/mL crude drug. 20 g Radix Ginseng Rubra was treated as above and the extract was condensed to 0.1 g/mL crude drug. SMS and Radix Ginseng Rubra concentrated solution was subjected to D101 macroporous resin and eluted with water followed by 95% ethanol. The 95% ethanol eluate was further concentrated to 5.5 g/mL crude drug for SMS and 1.0 g/mL crude drug for Radix Ginseng Rubra before use.
# An aliquot of 300 μL plasma sample was transferred into a centrifuge tube together with 10 μL of IS solution. After vortex-mixing for 30 s, the analytes and IS were extracted from plasma with n-butanol for three times (1 : 3, 1 : 2, and 1 : 2, v/v). Then the organic layer was transferred into another centrifuge tube and evaporated to dryness at 37°C. Finally, the residue was reconstituted in 20 μL methanol and centrifuged at 12,000 ×g for 10 min; 10 μL aliquot was injected into chromatographic system for analysis.
# Male Sprague-Dawley rats, 193–215 g in weight, were supplied by Shanghai Slater Experimental Animal Feeding Center (Shanghai, China). The rats were kept in an air-conditioned animal quarter at a temperature of 22 ± 2°C and a relative humidity of 50 ± 10%. The animals were acclimatized to the facilities for four days and then fasted with free access to water for 12 h prior to experiment. Animal experiments were carried out in accordance with the Regulations of Experimental Animal Administration issued by the Ministry of Science and Technology of China. All animal protocols were approved by the Ethics Committee on the Care and Use of Laboratory Animals of China pharmaceutical University.
# Rats were divided randomly into two groups (5 rats in each time point per group) and given an oral dose of 1.35 mL/100 g Radix Ginseng Rubra and SMS extracts, respectively, which was derived from the dose in clinical practice with correction. […]
# [1] = oral Radix Ginseng Rubra extract 1.35 mL/100 g
structure (smiles),measurement,setting,value
"CC(C)=CCCC(C)(O)C1CCC2C1C(O)CC1C2(C)CC(OC2OC(CO)C(O)C(O)C2O)C2C(C)(C)C(O)CCC21C [20(S)-Rh1, 20(S)-ginsenoside Rh1]",AUCC,"oral Radix Ginseng Rubra extract 1.35 mL/100 g, dose-corrected AUC0–∞",159.20 ± 26.03
same,T max,[1],0.50 h
same,AUC(0–t),[1],157.53 ± 25.46
same,AUC(0–∞),[1],159.27 ± 26.03
same,C max,[1],152.49 ± 30.98 ng/mL
same,t 1/2,[1],2.85 ± 0.69 h
same,T max,oral SMS extract 1.35 mL/100 g,1.50 h
same,AUC(0–t),oral SMS extract 1.35 mL/100 g,409.48 ± 62.23
same,AUC(0–∞),oral SMS extract 1.35 mL/100 g,419.75 ± 65.31
same,C max,oral SMS extract 1.35 mL/100 g,195.34 ± 44.91 ng/mL
same,t 1/2,oral SMS extract 1.35 mL/100 g,4.21 ± 1.05^∗ h
